Experiments:
Type in all cases: cell-based
[1] = tested on: Saccharomyces cerevisiae BY4743; test: 24 hour survival (CFU) at low and high cell density
Procedure: Saccharomyces cerevisiae BY4743 (ATCC 201390) was plated from a freezer vial onto YPD agar (Teknova, Hollister, Calif.; Cat. #Y1000) and incubated overnight at 30° C. Cells from the YPD plate were inoculated into a 25 ml pre-culture of YPD broth (Teknova; Cat. #Y5000) with an initial OD600 of 0.06 to 0.08. The pre-culture was grown for 7 hours in an aerobic shaker at 30° C. An aliquot of the pre-culture was inoculated into 200 ml of YPD broth, with an initial OD600 of 0.06 to 0.08, and this culture was incubated with aeration at 30° C. for approximately 17 hours. The optical density of the culture was measured, the culture was centrifuged and the cells were resuspended to yield an OD600 of 5 in fresh YPD broth. This is referred to as a high cell density (HCD) culture. […] This is referred to as a low the cell density (LCD) culture. These cultures were incubated at 30° C. with shaking for 30 minutes for an acclimation period. At the end of the 30 minute acclimation period, the OD600 was measured. 5 ml of low or high cell density culture was dispensed to 15 ml conical tubes which contained different concentrations of the alcohol to be tested. A control tube included no alcohol. The tubes were placed in a rotary drum at 30° C. and incubated for 24 hours. The time of addition of cells was referred to as “time 0”. […] Colony forming units (CFUs) were determined on YPD plates at time 0 for the control and at 24 hours for each of the cultures, including the control culture, using standard microbiological methods. […] Colonies were counted after 48 hours, and CFUs/ml were calculated. At time 0, the low cell density cultures had about 4.8×10^5 CFUs/ml, and the high cell density cultures had about 5.4×10^7 CFUs/ml.

[2] = tested on: Saccharomyces cerevisiae PNY0571; test: Glucose consumption rate in high cell density culture in YPD; conditions: about 3.9 gdcw/L
From the text: (§1) S. cerevisiae strains used were PNY0569 CEN.PK122 (MATa MAL2-8c SUC2/MATalpha MAL2-8c SUC2) and PNY0571 (CEN.PK 113-7D MATa MAL2-8c SUC2), obtained from Centraalbureau voor Schimmelcultures, Fungal and Yeast Collection (Netherlands) as well as PNY0602 and PNY0614. PNY0602 and PNY0614 were isolated from a mutagenized culture of PNY0571. PNY0571 (CEN.PK 113-7D) was subjected to 10 rounds of chemical mutagenesis with N-methyl-N′-nitro-N-nitrosoguanidine (NTG) and ethylmethane sulfonate (EMS) using standard methods (Barbour, L., M. Hanna and W. Xiao. 2006. Mutagenesis, p. 121-127. In W. Xiao (ed.), Yeast Protocols, Second Edition. Humana Press, NJ). Cells were grown overnight in 10 ml of YPD at 30° C. with shaking. The overnight culture was centrifuged, and the pellet was resuspended in 50 mM potassium phosphate buffer, pH 7.0. The cells were again centrifuged and resuspended in 10 ml of the same buffer. A portion of the resuspended cells (2.5 ml) was transferred to a plastic 15 ml screw cap centrifuge tube, and the cells were treated with NTG (10 μg/ml final concentration) or EMS (3% w/v) for 40 minutes at 30° C. without shaking. The mutagen was inactivated by addition of an equal volume of filter sterilized 10% (w/v) sodium thiosulfate. The treated cells were centrifuged and resuspended in water two times. The treatment protocol involved repeated cycles of treating yeast cells with one of the mutagens (e.g., NTG), allowing the surviving cells to grow out overnight in YPD with 1% isobutanol, and then treating the overnight culture with the other mutagen (e.g., EMS). After the fifth cycle (i.e., a total of ten treatments with mutagen), cells were screened for isobutanol tolerance. PNY0602 was isolated after prolonged (24 h) exposure to 3.0% isobutanol. PNY0614 was isolated after 5 cycles of repeated freezing and thawing of the mutagenized culture by resuspending mutagenized cells in distilled water and transferring the cells to dry-ice ethanol bath and a 37° C. water bath for 20 minutes each.
(§2) Glucose consumption rates in the presence of isobutanol in YPD were also determined when the cell concentration was about 8 O.D. (about 3.9 gdcw/L). Saccharomyces cerevisiae strains PNY0571, PNY0602 and PNY0614 were plated from a freezer vial onto YPD agar (Teknova, Hollister, Calif.; Cat. #Y1000) and incubated overnight at 30° C. Cells from the YPD plate were inoculated into a 25 ml pre-culture of YPD broth (Teknova, Hollister, Calif.; Cat. #Y5000) with an initial OD600 of 0.06 to 0.08, and this culture was grown for 7 hours in an air shaker at 30° C. An aliquot of the pre-culture was inoculated into 200 ml of YPD broth with an initial OD600 of 0.06 to 0.08, and this culture was incubated with aeration at 30° C. for approximately 17 hours. The optical density of the culture was determined, the culture was centrifuged and the cells were resuspended in fresh YPD broth to yield an OD600 of 8. At this point, an aliquot of 10 ml of the culture was used for a dry cell weight determination, which gave dry cell weight in the range of 3.89 gdcw/L.
(§3) 20 ml cultures were transferred to flasks that contained 0.0%, 0.5%, 0.75%, 1.0%, 1.25%, 1.5%, 1.75%, 2.0% and 2.5% isobutanol. Time of addition of cells was referred to as 0 hours. At various times samples (500 to 700 ul) were transferred to a tube containing an equal volume of 10% TCA. Samples were centrifuged and glucose determined in the YSI glucose analyzer (YSI 2700 Select).

[3] = tested on: Saccharomyces cerevisiae PNY0614; test: as above; conditions: about 3.9 gdcw/L
From the text: as §1, §2, §3

[4] = tested on: Saccharomyces cerevisiae PNY0602; test: as above; conditions: about 3.9 gdcw/L
From the text: as §1, §2, §3

CC(C)CO [Isobutanol, isobutanol]
Percent Survival HCD (%) ([1]; 1.0% (w/v) alcohol, high cell density OD600 5): 77.8%
Percent Survival LCD (%) ([1]; 1.0% (w/v) alcohol, low cell density OD600 0.05): 0.6%
Percent Survival HCD (%) ([1]; 1.5% (w/v) alcohol, high cell density): 45.1%
Percent Survival LCD (%) ([1]; 1.5% (w/v) alcohol, low cell density): 0.1%
Percent Survival HCD (%) ([1]; 2.5% (w/v) alcohol, high cell density): <0.001%
Percent Survival LCD (%) ([1]; 2.5% (w/v) alcohol, low cell density): <0.001%
Glucose consumed per gdcw per hour ([2]; PNY0571, 0.5% isobutanol): 2.1 per gdcw per hour
Glucose consumed per gdcw per hour ([2]; PNY0571, 0.75% isobutanol): 2.0 per gdcw per hour
Glucose consumed per gdcw per hour ([2]; PNY0571, 1% isobutanol): 1.9 per gdcw per hour
Glucose consumed per gdcw per hour ([2]; PNY0571, 1.5% isobutanol): 1.0 per gdcw per hour
Glucose consumed per gdcw per hour ([2]; PNY0571, 1.75% isobutanol): 0.8 per gdcw per hour
Glucose consumed per gdcw per hour ([2]; PNY0571, 2% isobutanol): 0.6 per gdcw per hour
Glucose consumed per gdcw per hour ([2]; PNY0571, 2.5% isobutanol): 0.3 per gdcw per hour
Glucose consumed per gdcw per hour ([3]; PNY0614, 0.5% isobutanol): 2.9 per gdcw per hour
Glucose consumed per gdcw per hour ([3]; PNY0614, 0.75% isobutanol): 2.8 per gdcw per hour
Glucose consumed per gdcw per hour ([3]; PNY0614, 1% isobutanol): 2.6 per gdcw per hour
Glucose consumed per gdcw per hour ([3]; PNY0614, 1.5% isobutanol): 1.4 per gdcw per hour
Glucose consumed per gdcw per hour ([3]; PNY0614, 1.75% isobutanol): 1.0 per gdcw per hour
Glucose consumed per gdcw per hour ([3]; PNY0614, 2% isobutanol): 0.8 per gdcw per hour
Glucose consumed per gdcw per hour ([3]; PNY0614, 2.5% isobutanol): 0.4 per gdcw per hour
Glucose consumed per gdcw per hour ([4]; PNY0602, 0.5% isobutanol): 3.0 per gdcw per hour
Glucose consumed per gdcw per hour ([4]; PNY0602, 0.75% isobutanol): 2.9 per gdcw per hour
Glucose consumed per gdcw per hour ([4]; PNY0602, 1% isobutanol): 2.7 per gdcw per hour
Glucose consumed per gdcw per hour ([4]; PNY0602, 1.5% isobutanol): 1.5 per gdcw per hour
Glucose consumed per gdcw per hour ([4]; PNY0602, 1.75% isobutanol): 1.1 per gdcw per hour
Glucose consumed per gdcw per hour ([4]; PNY0602, 2% isobutanol): 0.9 per gdcw per hour
Glucose consumed per gdcw per hour ([4]; PNY0602, 2.5% isobutanol): 0.5 per gdcw per hour

— patent US20120149080A1, “YEAST PRODUCTION CULTURE FOR THE PRODUCTION OF BUTANOL” (Butamax(TM) Advanced Biofuels LLC, priority 2010, published 2012)
